In paper PMC10289903 (Investigational New Drugs, 2023):
Like-named read-outs stand apart in the source and are kept apart here.

System: patients with locally advanced or metastatic solid tumors
From the text: This was a Phase Ib, multicenter, open-label, dose-finding clinical trial (NCT02610075). […] Three types of treatment schedules were investigated: cohorts bid 1, bid 2, qd 1.1, qd 2.1 and qd 3.1 received bid or qd treatment on a 5/9 schedule (5 days on treatment, followed by 9 days off) on a 14-day cycle. Cohorts qd 1.2, qd 2.2, and qd 3.2 received treatment on a 5/2 schedule (5 days on followed by 2 days off for 2 of 3 weeks) in a 21-day cycle. Cohorts qd 2.3 and qd 3.3 received treatment on a weekly 5/2 schedule in a 21-day cycle (Table 1). The highest dose level(s) at which less than one-third of evaluable patients (none of 3 patients or 1 of 6 patients) experienced a dose-limiting toxicity (DLT) was declared the MTD.
The per protocol analysis set was defined as a subset of the full analysis set, excluding subjects having an important protocol deviation, to be used for analyses of efficacy endpoints if appropriate.

C=CCn1c(=O)c2cnc(Nc3ccc(N4CCN(C)CC4)cc3)nc2n1-c1cccc(C(C)(C)O)n1 [adavosertib, Adavosertib]
4 (100) n (%): Any AE (treatment-emergent) (qd 2.1: 250 mg qd 5/9 (n=4))
1 (20.0) n (%): Dizziness (treatment-emergent AE) (qd 1.1: 200 mg qd 5/9 (n=5)) | Dyspepsia (treatment-emergent AE) (qd 1.1: 200 mg qd 5/9 (n=5)) | Fatigue (treatment-related AE) (qd 1.1: 200 mg qd 5/9 (n=5)) | Headache (treatment-emergent AE) (qd 1.1: 200 mg qd 5/9 (n=5)) | Myalgia (treatment-emergent AE) (qd 1.1: 200 mg qd 5/9 (n=5)) | Myalgia (treatment-related AE) (qd 1.1: 200 mg qd 5/9 (n=5)) | Nausea (treatment-emergent AE) (qd 1.1: 200 mg qd 5/9 (n=5)) | Nausea (treatment-related AE) (qd 1.1: 200 mg qd 5/9 (n=5)) | Neutropenia (treatment-emergent AE) (qd 1.1: 200 mg qd 5/9 (n=5)) | Neutropenia (treatment-related AE) (qd 1.1: 200 mg qd 5/9 (n=5)) | Pyrexia (treatment-emergent AE) (qd 1.1: 200 mg qd 5/9 (n=5)) | Rash (treatment-emergent AE) (qd 1.1: 200 mg qd 5/9 (n=5)) | Urinary tract infection (treatment-emergent AE) (qd 1.1: 200 mg qd 5/9 (n=5))
1 (16.7) n (%): Abdominal pain (treatment-related AE) (qd 1.2: 200 mg qd 5/2 (n=6)) | Alanine aminotransferase increased (treatment-emergent AE) (qd 1.2: 200 mg qd 5/2 (n=6)) | Back pain (treatment-emergent AE) (qd 1.2: 200 mg qd 5/2 (n=6)) | Constipation (treatment-related AE) (qd 1.2: 200 mg qd 5/2 (n=6)) | Cough (treatment-emergent AE) (qd 1.2: 200 mg qd 5/2 (n=6)) | Decreased appetite (treatment-emergent AE) (qd 1.2: 200 mg qd 5/2 (n=6)) | Decreased appetite (treatment-related AE) (qd 1.2: 200 mg qd 5/2 (n=6)) | Dehydration (treatment-related AE) (qd 1.2: 200 mg qd 5/2 (n=6)) | Dyspepsia (treatment-emergent AE) (qd 1.2: 200 mg qd 5/2 (n=6)) | Dyspepsia (treatment-related AE) (qd 1.2: 200 mg qd 5/2 (n=6)) | Dyspnea (treatment-emergent AE) (qd 1.2: 200 mg qd 5/2 (n=6)) | Fall (treatment-emergent AE) (qd 1.2: 200 mg qd 5/2 (n=6)) | Fatigue (treatment-emergent AE) (qd 1.2: 200 mg qd 5/2 (n=6)) | Fatigue (treatment-related AE) (qd 1.2: 200 mg qd 5/2 (n=6)) | Insomnia (treatment-emergent AE) (qd 1.2: 200 mg qd 5/2 (n=6)) | Muscle spasms (treatment-emergent AE) (qd 1.2: 200 mg qd 5/2 (n=6)) | Neutropenia (treatment-emergent AE) (qd 1.2: 200 mg qd 5/2 (n=6)) | Pyrexia (treatment-emergent AE) (qd 1.2: 200 mg qd 5/2 (n=6)) | Urinary tract infection (treatment-emergent AE) (qd 1.2: 200 mg qd 5/2 (n=6))
6 (100) n (%): Any AE (treatment-emergent) (qd 1.2: 200 mg qd 5/2 (n=6)) | Any treatment-related AE (qd 1.2: 200 mg qd 5/2 (n=6))
4 (66.7) n (%): Nausea (treatment-emergent AE) (qd 1.2: 200 mg qd 5/2 (n=6)) | Nausea (treatment-related AE) (qd 1.2: 200 mg qd 5/2 (n=6))
0 n (%): Dyspepsia (treatment-related AE) (qd 1.1: 200 mg qd 5/9 (n=5)) | Dyspnea (treatment-emergent AE) (qd 1.1: 200 mg qd 5/9 (n=5)) | Edema peripheral (treatment-emergent AE) (qd 1.1: 200 mg qd 5/9 (n=5)) | Fall (treatment-emergent AE) (qd 1.1: 200 mg qd 5/9 (n=5)) | Hypokalemia (treatment-emergent AE) (qd 1.1: 200 mg qd 5/9 (n=5)) | Insomnia (treatment-emergent AE) (qd 1.1: 200 mg qd 5/9 (n=5)) | Muscle spasms (treatment-emergent AE) (qd 1.1: 200 mg qd 5/9 (n=5)) | Pneumonia (treatment-emergent AE) (qd 1.1: 200 mg qd 5/9 (n=5)) | Thrombocytopenia (treatment-emergent AE) (qd 1.1: 200 mg qd 5/9 (n=5)) | Thrombocytopenia (treatment-related AE) (qd 1.1: 200 mg qd 5/9 (n=5)) | Vomiting (treatment-emergent AE) (qd 1.1: 200 mg qd 5/9 (n=5)) | Vomiting (treatment-related AE) (qd 1.1: 200 mg qd 5/9 (n=5)) | Asthenia (treatment-emergent AE) (qd 1.2: 200 mg qd 5/2 (n=6)) | Asthenia (treatment-related AE) (qd 1.2: 200 mg qd 5/2 (n=6)) | Hypokalemia (treatment-emergent AE) (qd 1.2: 200 mg qd 5/2 (n=6)) | Neutropenia (treatment-related AE) (qd 1.2: 200 mg qd 5/2 (n=6)) | Pneumonia (treatment-emergent AE) (qd 1.2: 200 mg qd 5/2 (n=6)) | Rash (treatment-emergent AE) (qd 1.2: 200 mg qd 5/2 (n=6)) | Thrombocytopenia (treatment-emergent AE) (qd 1.2: 200 mg qd 5/2 (n=6)) | Thrombocytopenia (treatment-related AE) (qd 1.2: 200 mg qd 5/2 (n=6)) | Alanine aminotransferase increased (treatment-emergent AE) (qd 2.1: 250 mg qd 5/9 (n=4)) | Anemia (treatment-related AE) (qd 2.1: 250 mg qd 5/9 (n=4)) | Any treatment-related grade ≥ 3 AE (qd 2.1: 250 mg qd 5/9 (n=4)) | Asthenia (treatment-emergent AE) (qd 2.1: 250 mg qd 5/9 (n=4)) | Asthenia (treatment-related AE) (qd 2.1: 250 mg qd 5/9 (n=4)) | Back pain (treatment-emergent AE) (qd 2.1: 250 mg qd 5/9 (n=4)) | Constipation (treatment-emergent AE) (qd 2.1: 250 mg qd 5/9 (n=4)) | Constipation (treatment-related AE) (qd 2.1: 250 mg qd 5/9 (n=4)) | Decreased appetite (treatment-emergent AE) (qd 2.1: 250 mg qd 5/9 (n=4)) | Decreased appetite (treatment-related AE) (qd 2.1: 250 mg qd 5/9 (n=4)) | Dehydration (treatment-emergent AE) (qd 2.1: 250 mg qd 5/9 (n=4)) | Dehydration (treatment-related AE) (qd 2.1: 250 mg qd 5/9 (n=4)) | Dizziness (treatment-emergent AE) (qd 2.1: 250 mg qd 5/9 (n=4)) | Dyspepsia (treatment-emergent AE) (qd 2.1: 250 mg qd 5/9 (n=4)) | Dyspepsia (treatment-related AE) (qd 2.1: 250 mg qd 5/9 (n=4)) | Dyspnea (treatment-emergent AE) (qd 2.1: 250 mg qd 5/9 (n=4)) | Fall (treatment-emergent AE) (qd 2.1: 250 mg qd 5/9 (n=4)) | Fatigue (treatment-emergent AE) (qd 2.1: 250 mg qd 5/9 (n=4)) | Fatigue (treatment-related AE) (qd 2.1: 250 mg qd 5/9 (n=4)) | Headache (treatment-emergent AE) (qd 2.1: 250 mg qd 5/9 (n=4)) | Hypokalemia (treatment-emergent AE) (qd 2.1: 250 mg qd 5/9 (n=4)) | Insomnia (treatment-emergent AE) (qd 2.1: 250 mg qd 5/9 (n=4)) | Muscle spasms (treatment-emergent AE) (qd 2.1: 250 mg qd 5/9 (n=4)) | Myalgia (treatment-emergent AE) (qd 2.1: 250 mg qd 5/9 (n=4)) | Myalgia (treatment-related AE) (qd 2.1: 250 mg qd 5/9 (n=4)) | Nausea (treatment-emergent AE) (qd 2.1: 250 mg qd 5/9 (n=4)) | Nausea (treatment-related AE) (qd 2.1: 250 mg qd 5/9 (n=4)) | Neutropenia (treatment-emergent AE) (qd 2.1: 250 mg qd 5/9 (n=4)) | Neutropenia (treatment-related AE) (qd 2.1: 250 mg qd 5/9 (n=4)) | Pneumonia (treatment-emergent AE) (qd 2.1: 250 mg qd 5/9 (n=4)) | Rash (treatment-emergent AE) (qd 2.1: 250 mg qd 5/9 (n=4)) | Thrombocytopenia (treatment-emergent AE) (qd 2.1: 250 mg qd 5/9 (n=4))
2 (33.3) n (%): Abdominal pain (treatment-emergent AE) (qd 1.2: 200 mg qd 5/2 (n=6)) | Anemia (treatment-emergent AE) (qd 1.2: 200 mg qd 5/2 (n=6)) | Anemia (treatment-related AE) (qd 1.2: 200 mg qd 5/2 (n=6)) | Any treatment-related grade ≥ 3 AE (qd 1.2: 200 mg qd 5/2 (n=6)) | Constipation (treatment-emergent AE) (qd 1.2: 200 mg qd 5/2 (n=6)) | Dehydration (treatment-emergent AE) (qd 1.2: 200 mg qd 5/2 (n=6)) | Diarrhea (treatment-related AE) (qd 1.2: 200 mg qd 5/2 (n=6)) | Dizziness (treatment-emergent AE) (qd 1.2: 200 mg qd 5/2 (n=6)) | Headache (treatment-emergent AE) (qd 1.2: 200 mg qd 5/2 (n=6))
1 (25.0) n (%): Abdominal pain (treatment-emergent AE) (qd 2.1: 250 mg qd 5/9 (n=4)) | Abdominal pain (treatment-related AE) (qd 2.1: 250 mg qd 5/9 (n=4)) | Anemia (treatment-emergent AE) (qd 2.1: 250 mg qd 5/9 (n=4)) | Diarrhea (treatment-emergent AE) (qd 2.1: 250 mg qd 5/9 (n=4)) | Diarrhea (treatment-related AE) (qd 2.1: 250 mg qd 5/9 (n=4)) | Edema peripheral (treatment-emergent AE) (qd 2.1: 250 mg qd 5/9 (n=4)) | Pyrexia (treatment-emergent AE) (qd 2.1: 250 mg qd 5/9 (n=4))
3 (50.0) n (%): Any grade ≥ 3 AE (qd 1.2: 200 mg qd 5/2 (n=6)) | Diarrhea (treatment-emergent AE) (qd 1.2: 200 mg qd 5/2 (n=6)) | Edema peripheral (treatment-emergent AE) (qd 1.2: 200 mg qd 5/2 (n=6)) | Myalgia (treatment-emergent AE) (qd 1.2: 200 mg qd 5/2 (n=6)) | Myalgia (treatment-related AE) (qd 1.2: 200 mg qd 5/2 (n=6)) | Vomiting (treatment-emergent AE) (qd 1.2: 200 mg qd 5/2 (n=6)) | Vomiting (treatment-related AE) (qd 1.2: 200 mg qd 5/2 (n=6))
2 (50.0) n (%): Any grade ≥ 3 AE (qd 2.1: 250 mg qd 5/9 (n=4)) | Any treatment-related AE (qd 2.1: 250 mg qd 5/9 (n=4)) | Cough (treatment-emergent AE) (qd 2.1: 250 mg qd 5/9 (n=4))
2 (40.0) n (%): Fatigue (treatment-emergent AE) (qd 1.1: 200 mg qd 5/9 (n=5))
